Results from ChEMBL document CHEMBL5625211, “Neutral sphingomyelinase 2 inhibitors based on the pyrazolo[1,5-a]pyrimidin-3-amine scaffold” (Eur J Med Chem, 2023).

Experiments:
[1] = Drug concentration in Wistar rat plasma at 10 mg/kg, po measured after 30 mins by LC-MS/MS method; type: ADME, organism-based
[2] = Drug concentration in Wistar rat brain at 10 mg/kg, po measured after 30 mins by LC-MS/MS method; type: ADME, organism-based; conditions: in vivo, 0.5 h

concentration at 0.5 h [1]: > 2000 nM | Drug uptake [2]: Active
Structure (SMILES): CN(C)c1cnn2ccc(N3CCOCC3)nc12
